Patent US9845310B2 (priority 2015, dated 2017)

Test system: naive Sprague Dawley rat hearts
Conditions: ex vivo isolated perfused rat heart, percent change over vehicle; for Isolated Heart Assay dP/dtmax(%): contractility; for Isolated Heart Assay dP/dtmin(%): relaxation (lusitropic)

Cc1cnc([C@@H](C)[C@H](C)S(=O)(=O)Nc2nnc(-c3cncc(C)c3)n2-c2c(F)cccc2F)nc1 (single isomer, unassigned) [Example 826.0, (2S,3R)-N-(4-(2,6-difluorophenyl)-5-(5-methylpyridin-3-yl)-4H-1,2,4-triazol-3-yl)-3-(5-methylpyrimidin-2-yl)butane-2-sulfonamide or (2R,3S)-N-(4-(2,6-difluorophenyl)-5-(5-methylpyridin-3-yl)-4H-1,2,4-triazol-3-yl)-3-(5-methylpyrimidin-2-yl)butane-2-sulfonamide]
Isolated Heart Assay dP/dtmax(%): 6.02%
Isolated Heart Assay dP/dtmin(%): 5.16%

COc1cccc(OC)c1-n1c(NS(=O)(=O)[C@H](C)[C@@H](O)c2cnc(C)cn2)nnc1-c1cncc(C)c1 (single isomer, unassigned) [Example 569.0, (1S,2R)-N-(4-(2,6-dimethoxyphenyl)-5-(5-methyl-3-pyridinyl)-4H-1,2,4-triazol-3-yl)-1-hydroxy-1-(5-methyl-2-pyrazinyl)-2-propanesulfonamide or (1R,2S)-N-(4-(2,6-dimethoxyphenyl)-5-(5-methyl-3-pyridinyl)-4H-1,2,4-triazol-3-yl)-1-hydroxy-1-(5-methyl-2-pyrazinyl)-2-propanesulfonamide]
Isolated Heart Assay dP/dtmax(%): 12.4%
Isolated Heart Assay dP/dtmin(%): 12.7%

COc1cccc(OC)c1-n1c(NS(=O)(=O)[C@@H](C)[C@H](O)c2ncc(F)cn2)nnc1-c1cccnc1 [Example 82.0, (1R,2S)-N-(4-(2,6-dimethoxyphenyl)-5-(3-pyridinyl)-4H-1,2,4-triazol-3-yl)-1-(5-fluoro-2-pyrimidinyl)-1-hydroxy-2-propanesulfonamide]
Isolated Heart Assay dP/dtmax(%): 13.5%
Isolated Heart Assay dP/dtmin(%): 16.2%

COc1cnc([C@H](O)[C@@H](C)S(=O)(=O)Nc2nnc(-c3cccnc3)n2-c2c(OC)cccc2OC)cn1 (single isomer, unassigned) [Example 706.0, (1S,2R)-N-(4-(2,6-dimethoxyphenyl)-5-(3-pyridinyl)-4H-1,2,4-triazol-3-yl)-1-hydroxy-1-(5-methoxy-2-pyrazinyl)-2-propanesulfonamide or (1R,2S)-N-(4-(2,6-dimethoxyphenyl)-5-(3-pyridinyl)-4H-1,2,4-triazol-3-yl)-1-hydroxy-1-(5-methoxy-2-pyrazinyl)-2-propanesulfonamide]
Isolated Heart Assay dP/dtmax(%): 9.1%
Isolated Heart Assay dP/dtmin(%): 4.0%

COc1ncnc(OC)c1-n1c(NS(=O)(=O)[C@@H](C)[C@H](C)c2ncc(Cl)cn2)nnc1-c1cccnc1 [Example 709.0, (2S,3R)-3-(5-chloro-2-pyrimidinyl)-N-(4-(4,6-dimethoxy-5-pyrimidinyl)-5-(3-pyridinyl)-4H-1,2,4-triazol-3-yl)-2-butanesulfonamide]
Isolated Heart Assay dP/dtmax(%): 6.0%
Isolated Heart Assay dP/dtmin(%): 3.0%

COc1cccc(-c2nnc(NS(=O)(=O)[C@@H](C)[C@H](OC)c3ncc(C)cn3)n2-c2cccnc2OC)n1 (atropisomer, axis not shown) [Example 741.0, (1R,2S, P)-1-methoxy-N-(4-(2-methoxy-3-pyridinyl)-5-(6-methoxy-2-pyridinyl)-4H-1,2,4-triazol-3-yl)-1-(5-methyl-2-pyrimidinyl)-2-propanesulfonamide and (1R,2S, M)-1-methoxy-N-(4-(2-methoxy-3-pyridinyl)-5-(6-methoxy-2-pyridinyl)-4H-1,2,4-triazol-3-yl)-1-(5-methyl-2-pyrimidinyl)-2-propanesulfonamide]
Isolated Heart Assay dP/dtmax(%): 1.4%
Isolated Heart Assay dP/dtmin(%): 6.6%

COc1cccc(OC)c1-n1c(NS(=O)(=O)[C@@H](C)[C@H](OC)c2ncc(F)cn2)nnc1-c1cccnc1 [Example 81.0, (1R,2S)-N-(4-(2,6-dimethoxyphenyl)-5-(3-pyridinyl)-4H-1,2,4-triazol-3-yl)-1-(5-fluoro-2-pyrimidinyl)-1-methoxy-2-propanesulfonamide]
Isolated Heart Assay dP/dtmax(%): 14.0%
Isolated Heart Assay dP/dtmin(%): 15.0%

COc1cccc(OC)c1-n1c(NS(=O)(=O)[C@@H](C)[C@H](OC)c2ncc(Cl)cn2)nnc1-c1cccnc1 [Example 591.0, (1R,2S)-1-(5-chloro-2-pyrimidinyl)-N-(4-(2,6-dimethoxyphenyl)-5-(3-pyridinyl)-4H-1,2,4-triazol-3-yl)-1-methoxy-2-propanesulfonamide]
Isolated Heart Assay dP/dtmax(%): 8.0%
Isolated Heart Assay dP/dtmin(%): 0.0%

CCO[C@H](c1ncc(C)cn1)[C@H](C)S(=O)(=O)Nc1nnc(-c2cncc(C)c2)n1-c1c(OC)cccc1OC [Example 252.0, (1R,2S)-N-(4-(2,6-dimethoxyphenyl)-5-(5-methylpyridin-3-yl)-4H-1,2,4-triazol-3-yl)-1-ethoxy-1-(5-methylpyrimidin-2-yl)propane-2-sulfonamide]
Isolated Heart Assay dP/dtmax(%): 15.7%
Isolated Heart Assay dP/dtmin(%): 16.3%

CCO[C@H](c1ncc(F)cn1)[C@H](C)S(=O)(=O)Nc1nnc(-c2cccnc2)n1-c1c(OC)cccc1OC [Example 51.0, (1R,2S)-N-(4-(2,6-dimethoxyphenyl)-5-(3-pyidinyl)-4H-1,2,4-triazol-3-yl)-1-ethoxy-1-(5-fluoro-2-pyrimidinyl)-2-propanesulfonamide]
Isolated Heart Assay dP/dtmax(%): 2.0%
Isolated Heart Assay dP/dtmin(%): 2.0%

COc1cccc(OC)c1-n1c(NS(=O)(=O)CCc2ccc(F)cc2C#N)nnc1-c1cncc(C)c1 [Example 621.0, 2-(2-cyano-4-fluorophenyl)-N-(4-(2,6-dimethoxyphenyl)-5-(5-methyl-3-pyridinyl)-4H-1,2,4-triazol-3-yl)ethanesulfonamide]
Isolated Heart Assay dP/dtmax(%): 7.4%
Isolated Heart Assay dP/dtmin(%): 6.0%

COc1cccc(OC)c1-n1c(NS(=O)(=O)[C@H](C)[C@@H](OC)c2cnc(C)cn2)nnc1-c1cncc(C)c1 (single isomer, unassigned) [Example 571.0, (1S,2R)-N-(4-(2,6-dimethoxyphenyl)-5-(5-methyl-3-pyridinyl)-4H-1,2,4-triazol-3-yl)-1-methoxy-1-(5-methyl-2-pyrazinyl)-2-propanesulfonamide or (1R,2S)-N-(4-(2,6-dimethoxyphenyl)-5-(5-methyl-3-pyridinyl)-4H-1,2,4-triazol-3-yl)-1-methoxy-1-(5-methyl-2-pyrazinyl)-2-propanesulfonamide]
Isolated Heart Assay dP/dtmax(%): 13.3%
Isolated Heart Assay dP/dtmin(%): 18.8%

COc1cccc(-c2nnc(NS(=O)(=O)[C@@H](C)[C@H](C)c3cnc(C)cn3)n2-c2c(OC)ncnc2OC)n1 [Example 799.0, (2S,3R)-N-(4-(4,6-dimethoxy-5-pyrimidinyl)-5-(6-methoxy-2-pyridinyl)-4H-1,2,4-triazol-3-yl)-3-(5-methyl-2-pyrazinyl)-2-butanesulfonamide]
Isolated Heart Assay dP/dtmax(%): 7.8%
Isolated Heart Assay dP/dtmin(%): 14.1%

COc1cccc(OC)c1-n1c(NS(=O)(=O)[C@H](C)[C@@H](O)c2cnc(C)cn2)nnc1-c1cccnc1 [Example 614.0, (1S,2R)-N-(4-(2,6-dimethoxyphenyl)-5-(3-pyridinyl)-4H-1,2,4-triazol-3-yl)-1-hydroxy-1-(5-methyl-2-pyrazinyl)-2-propanesulfonamide]
Isolated Heart Assay dP/dtmax(%): 6.6%
Isolated Heart Assay dP/dtmin(%): 6.2%

COc1cnc([C@@H](C)[C@H](C)S(=O)(=O)Nc2nnc(-c3cccnc3)n2-c2c(OC)ncnc2OC)cn1 [Example 803.0, (2S,3R)-N-(4-(4,6-dimethoxy-5-pyrimidinyl)-5-(3-pyridinyl)-4H-1,2,4-triazol-3-yl)-3-(5-methoxy-2-pyrazinyl)-2-butanesulfonamide]
Isolated Heart Assay dP/dtmax(%): 11.4%
Isolated Heart Assay dP/dtmin(%): 10.0%

COc1cccc(OC)c1-n1c(NS(=O)(=O)[C@@H](C)[C@H](C)c2ncc(F)cn2)nnc1-c1cccnc1 (racemic) [Example 184.0, (2R,3S)-N-(4-(2,6-dimethoxyphenyl)-5-(3-pyridinyl)-4H-1,2,4-triazol-3-yl)-3-(5-fluoro-2-pyrimidinyl)-2-butanesulfonamide or (2S,3R)-N-(4-(2,6-dimethoxyphenyl)-5-(3-pyridinyl)-4H-1,2,4-triazol-3-yl)-3-(5-fluoro-2-pyrimidinyl)-2-butanesulfonamide]
Isolated Heart Assay dP/dtmax(%): 14.5%
Isolated Heart Assay dP/dtmin(%): 14.0%

COc1ncnc(OC)c1-n1c(NS(=O)(=O)[C@@H](C)[C@H](OC)c2ccc(Cl)cn2)nnc1-c1cccnc1 (single isomer, unassigned) [Example 711.0, (1R,2S)-1-(5-chloro-2-pyridinyl)-N-(4-(4,6-dimethoxy-5-pyrimidinyl)-5-(3-pyridinyl)-4H-1,2,4-triazol-3-yl)-1-methoxy-2-propanesulfonamide or (1S,2R)-1-(5-chloro-2-pyridinyl)-N-(4-(4,6-dimethoxy-5-pyrimidinyl)-5-(3-pyridinyl)-4H-1,2,4-triazol-3-yl)-1-methoxy-2-propanesulfonamide]
Isolated Heart Assay dP/dtmax(%): 9.4%
Isolated Heart Assay dP/dtmin(%): 1.1%

CCO[C@H](c1ncc(Cl)cn1)[C@H](C)S(=O)(=O)Nc1nnc(-c2cncc(C)c2)n1-c1c(OC)cccc1OC [Example 610.0, (1R,2S)-1-(5-chloro-2-pyrimidinyl)-N-(4-(2,6-dimethoxyphenyl)-5-(5-methyl-3-pyridinyl)-4H-1,2,4-triazol-3-yl)-1-ethoxy-2-propanesulfonamide]
Isolated Heart Assay dP/dtmax(%): 6.0%
Isolated Heart Assay dP/dtmin(%): No effect

COc1cccc(-c2nnc(NS(=O)(=O)[C@@H](C)[C@H](C)c3ncc(Cl)cn3)n2-c2c(OC)ncnc2OC)n1 [Example 710.0, (2S,3R)-3-(5-chloro-2-pyrimidinyl)-N-(4-(4,6-dimethoxy-5-pyrimidinyl)-5-(6-methoxy-2-pyridinyl)-4H-1,2,4-triazol-3-yl)-2-butanesulfonamide]
Isolated Heart Assay dP/dtmax(%): 12.7%
Isolated Heart Assay dP/dtmin(%): 10.3%

COc1cccc(-c2nnc(NS(=O)(=O)[C@@H](C)[C@H](C)c3ncc(C)cn3)n2-c2c(F)cccc2F)n1 [Example 784.0, (2S,3R)-N-(4-(2,6-difluorophenyl)-5-(6-methoxy-2-pyridinyl)-4H-1,2,4-triazol-3-yl)-3-(5-methyl-2-pyrimidinyl)-2-butanesulfonamide]
Isolated Heart Assay dP/dtmax(%): 4.3%
Isolated Heart Assay dP/dtmin(%): 1.93%
